Data reported in PubChem BioAssay (NCI).
Where “and” joins values, the source holds several entries; their conditions need not be identical. Equal entries are not always repeated.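 In this assay, cells in 96-well plates receive the compound at five concentrations for 48 hours. Endpoints are linearly interpolated between the surrounding concentrations. GI50: concentration for 50% inhibition of growth. At the TGI there is no net growth.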

Columns and labels:
Assay in all cases: NCI-60 cell line screen, 48 h
[1] = system: SK-MEL-28 melanoma
[2] = system: CAKI-1 renal
[3] = system: M14 melanoma
[4] = system: OVCAR-5 ovarian
[5] = system: A498 renal
[6] = system: 786-0 renal
[7] = system: HCT-116 colon
[8] = system: UO-31 renal
[9] = system: COLO 205 colon
[10] = system: U251 CNS

Row | SMILES | GI50 [1] | TGI [1] | GI50 [2] | TGI [2] [µM] | GI50 [3] | TGI [3] | GI50 [4] | TGI [4] [µM] | GI50 [5] [µM] | TGI [5] [µM] | GI50 [6] | TGI [6] [µM] | GI50 [7] | TGI [7] [µM] | GI50 [8] | TGI [8] | GI50 [9] | TGI [9] | GI50 [10] | TGI [10] [µM]
1 | COc1ccc(F)c(F)c1C(=O)c1cnc(NC2CCN(S(C)(=O)=O)CC2)nc1N | 1.06 µM and 0.412 µM | > 27.2 µM and 4.78 µM | 1.05 µM and 0.232 µM | > 100 | 1.48 µM and 0.917 µM | 9.66 µM and > 10 µM | 0.728 µM and 0.251 µM | > 100 | 0.445 | 2.08 | 0.666 µM and 0.388 µM | > 27 | 0.257 µM and 0.183 µM | > 100 | 0.779 µM and 0.36 µM | 6.96 µM and > 9.24 µM | 0.253 µM and 0.15 µM | 1.69 µM and 1.48 µM | 0.484 µM and 0.371 µM | > 100
2 | Cc1ccc(C)c(N2C(=O)C(=O)C(c3nc4ccccc4s3)C(=Nc3cccc4c(=O)[nH][nH]c(=O)c34)C2=O)c1 (stereo not given) | – | > 100 µM | – | > 100 | – | > 100 µM | – | > 100 | – | > 100 | – | > 100 | – | > 100 | – | > 100 µM | – | > 100 µM | – | > 100
3 | O=C1/C(=C/c2ccc([N+](=O)[O-])cc2)COc2ccc(O)cc21 | 5.11 µM | 22.9 µM | 3.7 µM | 19.3 | 7.78 µM | > 100 µM | 5.97 µM | 33.2 | 4.52 | > 100 | 3.05 µM | 11.7 | 1.67 µM | 3.43 | 1.45 µM | 3.6 µM | 10.7 µM | 55.7 µM | 1.99 µM | 4.13
4 | COc1ccc(-c2cnoc2-c2cc(OC)c3c(c2)OCCO3)cc1 | 10.1 µM | > 100 µM | 0.0409 µM | > 100 | 0.0274 µM | > 46.8 µM | 0.0617 µM | > 86.7 | 0.0149 | 0.164 | 0.0629 µM | > 56.5 | 0.0396 µM | > 37 | 0.283 µM | > 100 µM | 0.0231 µM | 0.0806 µM | 0.0521 µM | > 100
5 | O=C(c1cccs1)C1NO[N+]([O-])=C1c1cccs1 (stereo not given) | 2.52 µM | 6.8 µM | 1.61 µM | 3.41 | 2.71 µM | 7.87 µM | 7.62 µM | 20.4 | 1.95 | 6.3 | 2.01 µM | 3.88 | 3.03 µM | 10.2 | 0.27 µM | 1.47 µM | 1.8 µM | 4.51 µM | 5.6 µM | 12
6 | c1ccc(-c2nc(N3CCCNCC3)c3nc(-c4ccccc4)oc3n2)cc1 | 1.71 µM | 3.15 µM | 1.52 µM | 3.02 | 1.79 µM | 3.4 µM | 1.7 µM | 3.18 | 1.07 | 2.3 | 1.73 µM | 3.45 | 1.65 µM | 3.35 | 1.35 µM | 2.71 µM | 1.6 µM | 3.38 µM | 1.74 µM | 3.31
7 | [2H]c1nc(=Nc2cc(NC(=O)C=C)c(N(C)CCN(C)C)cc2OC)[nH]c(-c2cn(C([2H])([2H])[2H])c3ccccc23)c1[2H] | 1.78 µM | 3.33 µM | 0.503 µM | 1.89 | 1.67 µM | 3.23 µM | 1.04 µM | 2.93 | 1.21 | 4.56 | 1.34 µM | 2.68 | 1.48 µM | 2.83 | 0.943 µM | 2.25 µM | 1.62 µM | 3.06 µM | 1.76 µM | 3.6
8 | Cc1c2ccncc2c(C)c2c1[nH]c1ccc(O)c(OCC(F)(F)F)c12 | – | 22.4 µM | – | 19.6 | – | 19.7 µM | – | 25.8 | – | 37.5 | – | 5.78 | – | 9.11 | – | 19.9 µM | – | 22.3 µM | – | 10.7
9 | c1cnn2ncc(-c3ccnc(Nc4ccc5c(c4)OCCO5)n3)c2c1 | 0.0544 µM | 0.199 µM | 0.0773 µM | > 8.78 | 0.0699 µM | 0.221 µM | 0.0866 µM | > 25 | 0.0492 | 0.128 | 0.0764 µM | > 25 | 0.0533 µM | 1.04 | 0.0917 µM | > 25 µM | 0.0473 µM | 0.107 µM | 0.0778 µM | 2.69
10 | CC(=O)[CH-]C(=O)c1ccccc1.CC(=O)[CH-]C(=O)c1ccccc1.CC1(C)OCC(C2OC3OC(C)(C)OC3C2[O-])O1.CC[O-].[Ti+4] (stereo not given) | 11.6 µM | 25.1 µM | 22.8 µM | 40.9 | 16.3 µM | 36.1 µM | 14.2 µM | 31.5 | 15.3 | 28.6 | 18.4 µM | 36 | 14.9 µM | 28.1 | 18.8 µM | 41.9 µM | 17 µM | 32.5 µM | 13.1 µM | 28.3
